# Reference: a melting point compilation (Tetko et al.; mined from patent text by program, amines drawn as free bases though some values may be those of a salt)
row,SMILES,melting point
1,COC(=O)CNS(=O)(=O)c1ccc(CCN2CC=C(c3c[nH]c(-c4ccc(F)cc4)c3-c3ccncc3)CC2)cc1,220 to 223 °C
2,Cc1nc(N2CCCN(CC3CC3)C2=O)sc1C(=O)NCc1cccnc1,142 to 145 °C
3,CC(C)c1cc(C(C)C)c(SSc2c(C(C)C)cc(C(C)C)cc2C(C)C)c(C(C)C)c1,93 to 94 °C
4,CCC1c2cc(OC)c(OC)cc2C(C=Cc2ccc(N)cc2)=NN(C(C)=O)C1C (stereo not given),104 to 106 °C
5,CCC(=O)NC1COC2=CC3=C(OCCC3)C(=O)C21 (stereo not given),184 °C
6,NC1=CC(=O)CC(c2ccccc2)C1 (stereo not given),190 to 191 °C
7,O=C(O)CCS(=O)(=O)NCCOCCc1ccccc1,80 to 82 °C
8,Oc1cc(Br)cnc1F,146 °C
9,CCN(CC)CCOc1ccc(Nc2nccc(-c3cccnc3)n2)cc1,87 to 89 °C
10,N#Cc1c(N2CCCCC2)cc(-c2ccc(F)cc2)c2c1-c1ccccc1C2,176 to 178 °C
11,NNc1nc2c(Cl)cccc2s1,232 to 235 °C
12,NC(Cc1c(Cl)cccc1Cl)=NO,172 to 173 °C
13,O=c1[nH]c(=O)n(C2OC(CO)C(O)C2F)cc1Br (stereo not given),214 to 216 °C
14,CN1CCN(Cc2c(C(=O)O)nc3c(=O)[nH]c4cc(C(F)(F)F)ccc4n23)CC1,> 240 °C
15,NCCNC(=O)Cc1ccsc1,89.7 to 92.1 °C
16,COC(=O)CC1c2ccc(Cl)cc2NC(=O)C1[N+](=O)[O-] (stereo not given),135 °C
17,COc1ccc(Nc2nc(-c3cccc(C(=O)Nc4ccc(C(=O)OCc5ccccc5)cc4)c3)cn3ccnc23)cc1OC,154 to 160 °C
18,Cn1ncnc1COc1nc2c(cnn2-c2ccccc2)c2ccccc12,149 to 151 °C
19,Cn1cc(-c2cccc(F)c2)c(=O)c(-c2cccc(F)c2)c1,149 to 151 °C
20,CC(C)CCc1c(-c2ccc(S(C)(=O)=O)cc2)cnn(-c2ccc(F)c(Cl)c2)c1=O,55 to 58 °C
21,O=C(CCc1ccccc1)N[C@H](Cc1ccc(C(F)(F)F)c(F)c1)[C@@H](O)c1ccc(F)cc1 (racemic),126 to 127 °C
22,Cc1ccc(S(=O)(=O)Oc2cccc(C=O)c2)cc1,65 to 67 °C
23,O=C(NC1CCOc2cc(C(=O)Nc3ccncc3)ccc21)OCc1ccccc1 (stereo not given),226 to 228 °C
24,COC(=O)c1cn2c(n1)COc1cc(C)ccc1-2,180 to 181 °C
25,CCCCCCCCCCCCOCC1CN(c2cc3c(cc2F)c(=O)c(C(=O)O)cn3CC)CCN1 (stereo not given),125 to 127 °C

row,SMILES,melting point
1,Cc1cc(C)c(CP(=O)(c2ccccc2)c2ccccc2)c(-c2ccc(F)c(C)c2)c1,109 to 111 °C
2,C=Cc1ccc(CSCCO)cc1,44 to 45.5 °C
3,Cc1c(F)c(F)nc(-c2ccc(C(F)(F)F)cc2)c1F,52 °C
4,Cc1nc(NC(=O)c2cnn3c(C(F)(F)F)cc(-c4ccc(C(F)(F)F)cc4)nc23)sc1S(=O)(=O)N1CCC(O)C1 (racemic),300 °C
5,CCn1c(=O)n(OCc2ccccc2)c(=O)c2cc(F)c(F)cc21,133 to 135 °C
6,O=C(NCCO)c1cccc(-c2cncc3cc(Cc4cccc(C(F)(F)F)c4)oc23)c1,155 to 156 °C
7,CC(=O)N1c2ccccc2Sc2nccnc21,174 to 175 °C
8,N#Cc1cccnc1NCc1nc2ccc(F)cc2c(=O)n1-c1ccccc1Cl,145 to 150 °C
9,CCc1c(C(=O)NN2CCCCC2)nn(-c2ccc(Cl)cc2Cl)c1-c1ccc(Br)cc1,112 to 115 °C
10,CCCCc1nccn1Cc1ccc2oc(-c3ccccc3C(=O)O)cc2c1,153 to 157 °C
11,CC(=O)Nc1cc2c(s1)C(c1ccccc1)CN(C)CC2 (stereo not given),180 °C
12,Cc1c(-c2cccnc2)n(CCCC=CC(=O)O)c2ccccc12,145 to 147 °C
13,CC(C)(C)c1ccc(CN2C(=O)N(c3ccccc3)CSC2=NCC(F)(F)F)cc1,113 to 114 °C
14,C[Si](O)(Cn1cncn1)c1ccc(-c2ccccc2)cc1 (stereo not given),97 to 99 °C
15,CSc1nc(=O)n(-c2ccc(Cl)c(C(=O)OC(C)C)c2)c(=O)n1C#N,55 to 56 °C
16,COc1cc2c(cc1C(F)(F)F)N(C(=O)Nc1cccc(-c3cnccc3C)c1)CC2,178 to 180 °C
17,O=C(O)COc1ccc(SCc2cc(-c3ccc(C(F)(F)F)cc3)no2)c2c1CCC2,166 to 168 °C
18,C=C(C)Cc1c(C)c(OC(C)=O)c(C)c(C)c1O,109 to 110 °C
19,CCN(CC)c1ccc2cc(C=CC(=O)c3c(N(CC)CC)c4ccccc4oc3=O)oc2c1,169 to 171 °C
20,CN(c1cccc2cc(-c3nccs3)[nH]c12)S(=O)(=O)N1CCCC1,108 °C
21,O=C1C=CC2=C(C1CC1CC1)n1ccc3c1=C(CCC=3)c1nncn12 (stereo not given),99 °C
22,CC(=O)Nc1nc(CCc2ccc(N)cc2)c(C(=O)NCc2ccc(C(F)(F)F)cc2)s1,199 to 201 °C
23,Cc1sc(N2C(=O)OCC2(C)C)nc1-c1ccc(C#N)cc1,192 to 193 °C
24,CCOP(=O)(O)COCCn1cnc2c(=O)[nH]c(N)nc21,192 to 194 °C
25,CCCCc1nc(CCCC)n(Cc2ccc(-c3ccccc3C(=O)O)cc2)n1,134 to 135 °C
